Experimental findings from ChEMBL document CHEMBL1201862, “PubChem BioAssay data set” (2004) are described below.

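Exposure lasted 48 hours, with cells grown in 96-well plates and compounds tested at five concentrations. At the GI50, growth is halved.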 The source made the active and inactive calls. Rule as the data show it: active = GI50 up to about 1.1 µM and inactive = higher.

Among the test systems are Hs-578T; A549; SK-MEL-28; ACHN; HOP-62; DMS-273; M14; RPMI-8226; MCF7; SNB-75; NCI-H522; UACC-257; HOP-92; MDA-N; OVCAR-8; UACC-62; LOX IMVI; HT-29; COLO 205; NCI-H23.
Common to all, as to assay: inhibition of tumour cell growth, NCI panel, 48 h

Turning to `COC12C(COC(=O)NCCO)C3=C(C(=O)C(C)=C(N)C3=O)N1CC1NC12` (stereo not drawn), the GI50 in the assay with Hs-578T is 198 µM (inactive); in the assay on A549, 7.66 µM (inactive); in the assay on SK-MEL-28 it was > 100 µM (inactive); in the assay with ACHN, 6.59 µM (inactive); in the assay with HOP-62 it was 6.47 µM (inactive); with DMS-273, 2.52 µM (inactive). Also, the GI50 was 11.5 µM (inactive) in the assay on M14; 74.8 µM (inactive) in the assay on RPMI-8226; 16 µM (inactive) with MCF7; 17.4 µM (inactive) in the assay on SNB-75; 14.5 µM (inactive) in the assay with NCI-H522; 69.7 µM (inactive) in the assay with UACC-257. In addition, the GI50 was 30 µM (inactive) in the assay with HOP-92; 86.1 µM (inactive) in the assay on MDA-N; 38.3 µM (inactive) in the assay on OVCAR-8; 8.11 µM (inactive) in the assay with UACC-62; 13.8 µM (inactive) in the assay on LOX IMVI; 29.2 µM (inactive) with HT-29. The GI50 with COLO 205 is 37.7 µM (inactive); with NCI-H23, 4.94 µM (inactive).

As for `CCCCCCCCCCCCCCCCCCOCC(COCCOCC[N+]1(CCCCCC(=O)[O-])CCCC1)Oc1ncccn1` (stereo not drawn), the GI50 was 13.6 µM (inactive) with Hs-578T; 3.95 µM (inactive) in the assay on A549; 6.68 µM (inactive) in the assay on SK-MEL-28; 10 µM (inactive) in the assay with ACHN; 1.88 µM (inactive) in the assay on HOP-62; 0.37 µM (active) with DMS-273. In addition, the GI50 in the assay on M14 is 7.41 µM (inactive); with RPMI-8226 it was 1.04 µM (active); in the assay with MCF7, 4.45 µM (inactive); in the assay on SNB-75, 2.61 µM (inactive); in the assay on NCI-H522 it was 1.34 µM (inactive); with UACC-257, 8.02 µM (inactive). Also, the GI50 in the assay with HOP-92 is 1.05 µM (active); in the assay with MDA-N, 10.5 µM (inactive); with OVCAR-8 it was 2.56 µM (inactive); with UACC-62, 3.35 µM (inactive); in the assay on LOX IMVI it was 2.88 µM (inactive); in the assay with HT-29, 1.73 µM (inactive). The GI50 in the assay on COLO 205 is 1.11 µM (active); in the assay on NCI-H23, 4.88 µM (inactive).

For `CC1=CC(=O)c2ccc3c4ccccc4n(C)c3c2C1=O`, the GI50 is 62.8 µM (inactive) in the assay with Hs-578T; 48.2 µM (inactive) in the assay on A549; 60.7 µM (inactive) in the assay with SK-MEL-28; 55.6 µM (inactive) in the assay with ACHN; 24.9 µM (inactive) in the assay on HOP-62; 43.4 µM (inactive) with DMS-273. The GI50 in the assay with M14 is 17.8 µM (inactive); in the assay on RPMI-8226 it was > 41.2 µM (inactive); with MCF7, 12 µM (inactive); in the assay with SNB-75, 54.1 µM (inactive); in the assay on NCI-H522, 28.4 µM (inactive); in the assay with UACC-257 it was 46.3 µM (inactive). In addition, the GI50 with HOP-92 was > 46.5 µM (inactive); in the assay with MDA-N it was 16.6 µM (inactive); in the assay with OVCAR-8, 58.9 µM (inactive); in the assay on HT-29 it was > 31.6 µM (inactive); with COLO 205, > 85.9 µM (inactive); with NCI-H23, 14 µM (inactive).
